Experimental data from patent US20200060994A1, “METHODS OF TREATING PSYCHIATRIC STRESS DISORDERS” (Yeda Research and Development Co. Ltd., priority 2017, published 2020).
“Also recorded” adds a separate entry of the source. Where a name gives a salt, the structure may show the parent alone.

How the values were obtained:
importin α5 KO mice [1] = assay: Open field (OF) test, importin α5 KO mice; format: in vivo, mouse; settings: FG-7142 5 mg/kg intraperitoneally, OF after 30 min
Method: (§1) All drugs were administered by intraperitoneal injection (I.P.). […] A. CNS Drug Rev.

importin α5 KO mice [2] = assay: Elevated plus maze (EPM) test, importin α5 KO mice; format: in vivo, mouse; settings: PF-543 10 mg/kg i.p.
Method: as §1
(§2) The EPM contains two open arms and two enclosed ones connected by a central square. Exploration on the open arms is reduced in high anxiety states while it is increased in low anxiety states [Walf, A. A. & Frye, C. A. Nat. Protoc. 2, 322-8 (2007)]. Mice were placed on the central platform facing one of the “open” arms to initiate a 5-minutes test session and the time spent in each arm was measured. The test was performed under 7 lx and 65 dB white noise. The number of entries into, the time spent/distance on the open arms and the percentage of the open arm entries compared with total number of arm entries were recorded using the VideoMot2 software (TSE System, Germany) or the Ethovision XT11 software (Noldus Information Technology, The Netherlands).

wild type C57BL6 mice [3] = assay: Elevated plus maze (EPM) test, wild type mice; format: in vivo, mouse
Method: as §1, §2

wild type C57BL6 mice [4] = assay: Open field (OF) test, wild type mice; settings: for anxiolytic properties / behavior in the OF test: 1 hour following i.p. injection vs vehicle, Sitosterol 100 mg/kg, Alvespimycin 75 mg/kg, Fluspirilene 10 mg/kg; for number of rearings in the OF center: larger cohort n=10 mice per group, P<0.01
[5] = S1P receptor agonist 0.1 mg/kg i.p., C57BL6, vs vehicle
[6] = S1P receptor agonist 0.1 mg/kg i.p., C57Bl6
[7] = β-sitosterol 100 mg/kg, 1 hour following injection, vs vehicle
[8] = β-sitosterol 100 mg/kg IP, 1 and 6 hours following injection, vs vehicle

CNC(=O)c1cc2c(cn1)[nH]c1ccccc12 [FG-7142]
distance travelled in the center of the OF (importin α5 KO mice [1]): significantly decreases | number of rearing events in the center (importin α5 KO mice [1]): significantly decreases | anxiolytic phenotype of importin α5 KO mice in the OF test (importin α5 KO mice [1]; 5 mg/kg): reversed anxiolysis

Cc1cc(CS(=O)(=O)c2ccccc2)cc(OCc2ccc(CN3CCC[C@@H]3CO)cc2)c1 [PF-543]
distance travelled in the open arms (importin α5 KO mice [2]; importin α5 KO animals): significantly decreased | time spent in the open arms (importin α5 KO mice [2]; importin α5 KO animals): significantly decreased | anxiolytic phenotype of importin α5 KO mice in the EPM (importin α5 KO mice [2]; 10 mg/kg): attenuated; also recorded: reverse the anxiolytic response of importin α5 KOs towards WT values | anxiety-related behavior of WT mice in the EPM (wild type C57BL6 mice [3]; PF-543 10 mg/kg i.p., WT mice): did not influence

CO[C@H]1/C=C\C=C(/C)C(=O)NC2=CC(=O)C(NCCN(C)C)=C(C[C@@H](C)C[C@H](OC)[C@H](O)[C@@H](C)/C=C(\C)[C@@H]1OC(N)=O)C2=O [alvespimycin]
anxiolytic properties / behavior in the OF test (wild type C57BL6 mice [4]): marked yet variable differences; also recorded: anxiolytic effect | rearing activity in the center (wild type C57BL6 mice [4]; alvespimycin 75 mg/kg i.p., 1 hour, single dosage regime, FIG. 12A): reaching statistical significance | motor performances in the OF test (wild type C57BL6 mice [4]; alvespimycin, independent cohort n=10, FIG. 12B): without adverse effects | number of rearings in the OF center (wild type C57BL6 mice [4]; alvespimycin, FIG. 12B): 6.2±2.07 | number of rearings in the OF center (wild type C57BL6 mice [4]; alvespimycin, FIG. 12B, listed as Alvespimycin): increase | time spent in the center area (wild type C57BL6 mice [4]; alvespimycin, n=10 per group, FIG. 12B, P=0.052): increased | latency to access the center area (wild type C57BL6 mice [4]; alvespimycin, n=10 per group, FIG. 12B, P=0.08): increased | number of visit in the center area (wild type C57BL6 mice [4]; alvespimycin, n=10 per group, FIG. 12B, P=0.09): increased

CNCCC(Oc1ccc(C(F)(F)F)cc1)c1ccccc1 (stereo not drawn) [fluoxetine, Fluoxetine hydrochloride]
anxiolytic effect in the OF test, dose-response (wild type C57BL6 mice [4]; fluoxetine 2, 5, 10 or 20 mg/kg vs vehicle, 10 minutes OF test): dose dependent anxiolytic effect | anxiolytic effects in the OF test (wild type C57BL6 mice [4]; fluoxetine doses of 5 mg/kg and below): no apparent effect | anxiolytic effects in the OF test (wild type C57BL6 mice [4]; fluoxetine doses of 10 mg/kg and above): significant anxiolytic effects

O=C1NCN(c2ccccc2)C12CCN(CCCC(c1ccc(F)cc1)c1ccc(F)cc1)CC2 [fluspirilene]
anxiolytic properties / behavior in the OF test (wild type C57BL6 mice [4]): anxiolytic effect

CCc1cc(/C(C)=N/OCc2ccc(C3CCCCC3)c(C(F)(F)F)c2)ccc1CN1CC(C(=O)O)C1 [siponimod]
time spent in the open arms of the EPM (wild type C57BL6 mice [3]; [5]): significant increase | anxiety levels in the EPM assay (wild type C57BL6 mice [3]; [6]): markedly reduced | distance in the open arms of the EPM (wild type C57BL6 mice [3]; siponimod 0.1 mg/kg i.p. every 3 days during 4 weeks, vs vehicle): significant increase | distance travelled in the center of the OF (wild type C57BL6 mice [4]; [5]): significant increase | time spent in the center of the OF (wild type C57BL6 mice [4]; [5]): significant increase | anxiety levels in the OF assay (wild type C57BL6 mice [4]; [6]): markedly reduced | center/border ratio (for the exploration time) in the OF (wild type C57BL6 mice [4]; siponimod 0.1 mg/kg i.p. every 3 days during 4 weeks, vs saline): higher

CC[C@H](CC[C@@H](C)[C@H]1CC[C@H]2[C@@H]3CC=C4C[C@@H](O)CC[C@]4(C)[C@H]3CC[C@]12C)C(C)C [β-sitosterol]
distance in the open arms of the EPM (wild type C57BL6 mice [3]; [7]): significant increase | time spent in the open arms of the EPM (wild type C57BL6 mice [3]; [7]): significant increase | anxiolytic properties / behavior in the OF test (wild type C57BL6 mice [4]): anxiolytic effect | distance travelled in the OF center (wild type C57BL6 mice [4]; [8]): increasing | number of visits in the OF center (wild type C57BL6 mice [4]; [8]): increasing | time course of anxiolytic effects in the OF test (wild type C57BL6 mice [4]; β-sitosterol by injection): apparent 1 hour post-injection and persisted until 6 hours following injection | anxiolytic effect in the OF test, dose response (wild type C57BL6 mice [4]; β-sitosterol intraperitoneally at the indicated doses, 1 hour following injection): clear dose-dependent anxiolytic effects; also recorded: reaching significance for the highest dose tested
